Laboratory results taken from article PMC8480901 (PLoS ONE, 2021).
Several values for one entry are separate records, joined by “and”; a condition that tells them apart may be missing. Equal values may be shown once.

Tested on: J774.2 mouse macrophages
Experiment: LPS-induced cytokine and chemokine levels in J774.2 mouse macrophage cell supernatant (ELISA)
Type: cell-based
Details: LPS; for CCl2, % reduction / CCl2, Mean / GM-CSF % reduction / GM-CSF Mean / IL-1β % reduction / IL-1β Mean / IL-6 % reduction / IL-6 Mean / TNF-α % reduction / TNF-α Mean / CCl2 / CXCL1 / GM-CSF / IL-1β / IL-6 / TNF-α: J774.2 supernatant; for CCl2 / CXCL1 / GM-CSF / IL-1β / IL-6 / TNF-α / CXCL2 / MMP9: individual replicate; for CXCL2 / MMP9: J774.2 cells

With `CC[C@H]1OC(=O)[C@H](C)[C@@H](O[C@H]2C[C@@](C)(OC)[C@@H](O)[C@H](C)O2)[C@H](C)[C@@H](O[C@@H]2O[C@H](C)C[C@H](N(C)C)[C@H]2O)[C@](C)(O)C[C@@H](C)CN(C)[C@H](C)[C@@H](O)[C@]1(C)O` [Azithromycin] the CCl2, % reduction (1 µM) was 17%, the “CCl2, Mean” value (1 µM) was 29990 pg/mL and the GM-CSF % reduction (1 µM) was 67%. The “GM-CSF Mean” value (1 µM) was 467 pg/mL, the IL-1β % reduction (1 µM) was 4.32% and the “IL-1β Mean” value (1 µM) was 183 pg/mL. For the same molecule, the IL-6 % reduction (1 µM) was 10%, the “IL-6 Mean” value (1 µM) was 69772 pg/mL and the TNF-α % reduction (1 µM) was -11%. The “TNF-α Mean” value (1 µM) was 1515 pg/mL, the CCl2 (1 µM) was 27895.3 pg/mL and 32084.6 pg/mL and the CXCL1 (1 µM) was 29.3 pg/mL and 31.2 pg/mL. The GM-CSF (1 µM) was 431.5 pg/mL and 502.0 pg/mL, the IL-1β (1 µM) was 188.28 pg/mL and 176.943 pg/mL and the IL-6 (1 µM) was 65142 pg/mL and 74401 pg/mL. The TNF-α (1 µM) was 1479.7 pg/mL and 1551.1 pg/mL, the CCl2, % reduction (3 µM) was 4% and the “CCl2, Mean” value (3 µM) was 34644 pg/mL. For the same molecule, the GM-CSF % reduction (3 µM) was 57%, the “GM-CSF Mean” value (3 µM) was 606 pg/mL and the IL-1β % reduction (3 µM) was -7%. The “IL-1β Mean” value (3 µM) was 204 pg/mL, the IL-6 % reduction (3 µM) was 7% and the “IL-6 Mean” value (3 µM) was 71996 pg/mL. The TNF-α % reduction (3 µM) was -31%, the “TNF-α Mean” value (3 µM) was 1780 pg/mL and the CCl2 (3 µM) was 38396.7 pg/mL and 30890.3 pg/mL. The CXCL1 (3 µM) was 37.9 pg/mL and 28.5 pg/mL, the GM-CSF (3 µM) was 728.6 pg/mL and 484.1 pg/mL and the IL-1β (3 µM) was 204.824 pg/mL and 203.959 pg/mL. For the same molecule, the IL-6 (3 µM) was 78966 pg/mL and 65026 pg/mL, the TNF-α (3 µM) was 1995.5 pg/mL and 1564.5 pg/mL and the CCl2, % reduction (10 µM) was 9%. The “CCl2, Mean” value (10 µM) was 32971 pg/mL, the GM-CSF % reduction (10 µM) was 52% and the “GM-CSF Mean” value (10 µM) was 674 pg/mL. For the same molecule, the IL-1β % reduction (10 µM) was 1.15%, the “IL-1β Mean” value (10 µM) was 189 pg/mL and the IL-6 % reduction (10 µM) was 15%. The “IL-6 Mean” value (10 µM) was 65894 pg/mL, the TNF-α % reduction (10 µM) was -25% and the “TNF-α Mean” value (10 µM) was 1709 pg/mL. For the same molecule, the CCl2 (10 µM) was 34921.6 pg/mL and 31021.1 pg/mL, the CXCL1 (10 µM) was 42.9 pg/mL and 34.6 pg/mL and the GM-CSF (10 µM) was 752.0 pg/mL and 595.8 pg/mL. For the same molecule, the IL-1β (10 µM) was 185.693 pg/mL and 191.532 pg/mL, the IL-6 (10 µM) was 62169 pg/mL and 69619 pg/mL and the TNF-α (10 µM) was 1793.0 pg/mL and 1624.6 pg/mL. The CCl2, % reduction (30 µM) was -14%, the “CCl2, Mean” value (30 µM) was 40819 pg/mL and the GM-CSF % reduction (30 µM) was 66%. For the same molecule, the “GM-CSF Mean” value (30 µM) was 483 pg/mL, the IL-1β % reduction (30 µM) was 28% and the “IL-1β Mean” value (30 µM) was 138 pg/mL. The IL-6 % reduction (30 µM) was 43%, the “IL-6 Mean” value (30 µM) was 44169 pg/mL and the TNF-α % reduction (30 µM) was -15%. The “TNF-α Mean” value (30 µM) was 1566 pg/mL, the CCl2 (30 µM) was 40980.3 pg/mL and 40657.2 pg/mL and the CXCL1 (30 µM) was 68.6 pg/mL and 51.5 pg/mL. The GM-CSF (30 µM) was 510.8 pg/mL and 455.1 pg/mL, the IL-1β (30 µM) was 129.379 pg/mL and 146.376 pg/mL and the IL-6 (30 µM) was 40788 pg/mL and 47550 pg/mL. For the same molecule, the TNF-α (30 µM) was 1637.1 pg/mL and 1494.0 pg/mL, the CCl2, % reduction (100 µM) was 12% and the “CCl2, Mean” value (100 µM) was 31879 pg/mL. The GM-CSF % reduction (100 µM) was 76%, the “GM-CSF Mean” value (100 µM) was 343 pg/mL and the IL-1β % reduction (100 µM) was 36%. For the same molecule, the “IL-1β Mean” value (100 µM) was 122 pg/mL, the IL-6 % reduction (100 µM) was 69% and the “IL-6 Mean” value (100 µM) was 24231 pg/mL. The TNF-α % reduction (100 µM) was -21%, the “TNF-α Mean” value (100 µM) was 1656 pg/mL and the CCl2 (100 µM) was 33824.3 pg/mL and 29933.1 pg/mL. For the same molecule, the CXCL1 (100 µM) was 66.2 pg/mL and 50.6 pg/mL, the GM-CSF (100 µM) was 399.7 pg/mL and 287.0 pg/mL and the IL-1β (100 µM) was 120.112 pg/mL and 124.217 pg/mL. The IL-6 (100 µM) was 25573 pg/mL and 22888 pg/mL, the TNF-α (100 µM) was 1818.4 pg/mL and 1493.5 pg/mL and the “CXCL2” value (compound 0.03 µM) was 14544.8 pg/mL and 27111.4 pg/mL. The “MMP9” value (compound 0.03 µM) was 1137.13 pg/mL and 1348.53 pg/mL, the “CXCL2” value (compound 0.1 µM) was 14262.2 pg/mL and 26368.8 pg/mL and the “MMP9” value (compound 0.1 µM) was 973.296 pg/mL and 1170.61 pg/mL. For the same molecule, the “CXCL2” value (compound 0.3 µM) was 19194.7 pg/mL and 27003.7 pg/mL, the “MMP9” value (compound 0.3 µM) was 981.336 pg/mL and 1072.64 pg/mL and the “CXCL2” value (compound 1 µM) was 28271.6 pg/mL and 28293.6 pg/mL. For the same molecule, the “MMP9” value (compound 1 µM) was 1115.62 pg/mL and 1010.37 pg/mL, the “CXCL2” value (compound 3 µM) was 17053.3 pg/mL and 14683.3 pg/mL and the “MMP9” value (compound 3 µM) was 1120.5 pg/mL. The “CXCL2” value (compound 10 µM) was 20008.2 pg/mL and 16019.2 pg/mL, the “MMP9” value (compound 10 µM) was 846.885 pg/mL and 873.775 pg/mL and the “CXCL2” value (compound 30 µM) was 23084.4 pg/mL and 24875.0 pg/mL. The “MMP9” value (compound 30 µM) was 575.954 pg/mL and 501.629 pg/mL, the “CXCL2” value (compound 100 µM) was 19137.4 pg/mL and 23402.0 pg/mL and the “MMP9” value (compound 100 µM) was 340.616 pg/mL and 323.365 pg/mL.
